Like-named read-outs stand apart in the source and are kept apart here.

Assay type in all cases: cell-based
Test [1] deals with MDA-MB-231 (breast cancer). In words: Antiproliferative activity (CCK-8 cell viability), MDA-MB-231. The note with it: Homo sapiens, 72 h, read-out: Antiproliferative activity in cancerous cells, MDA-MB-231 (inhibition of cell growth); for inhibition at 3.3 µM: Compound concentration: 3.3 μM; for inhibition at 10 µM: Compound concentration: 10 μM. As to the method: (§1) The antiproliferative activity of a compound was determined in the following cell lines: MDA-MB-231 (breast cancer), HepG2 (liver cancer), SW480 (colon cancer), B16F10 (malignant melanoma), A431 (epidermoid carcinoma), A549 (lung adenocarcinoma), and HeLa (cervical cancer). MDA-MB-231, HepG2, SW480, B16F10, and A431 cells were cultured in Dulbecco's modified Eagle's medium (DMEM) containing 10% fetal bovine serum (FBS). HeLa cells were cultured in MEM/EBSS (MEM) containing 10% FBS. A549 cells were maintained in Kaighn's modification of Ham's F-12 medium containing 10% FBS. A Cell Counting Kit-8 (CCK-8) was used to measure the cell viability of different cells following treatment with the compound.
(§2) Briefly cells were seeded in a 96-well plate at a density of 2,000-5,000 cells/well. Following attachment, the cells were treated with the compound in media at a compound concentration of 3.3 μM, 10 μM, or 30 μM. After the cells were incubated at 37° C. for 72 h, a CCK-8 solution (10 μL) was added to each well. After incubation at 37° C. for 4 h, the absorbance value of each well was determined using a multi-well plate reader at 450 nm. The wells treated with DMSO were taken as a vehicle control. Data were also obtained similarly for all the replicates and the percentage of cell viability was determined with respect to the DMSO-treated cells. The results are summarized in Tables 2-4, wherein A represents no less than […] of cell growth; B represents no less than 30% but less than 50% inhibition of cell growth; and C represents less than 30% inhibition of cell growth.

For another test, the system named is HepG2 (liver cancer). In words: Antiproliferative activity (CCK-8 cell viability), HepG2. Particulars: Homo sapiens, 72 h; for inhibition at 3.3 µM: Compound concentration: 3.3 μM; for inhibition at 10 µM: Compound concentration: 10 μM; for inhibition at 30 µM: Compound concentration: 30 μM. Here is the method: as §1, §2
A further test deals with SW480 (colon cancer). In words: Antiproliferative activity (CCK-8 cell viability), SW480. The note with it: Homo sapiens, 72 h; for inhibition at 3.3 µM: Compound concentration: 3.3 μM; for inhibition at 10 µM: Compound concentration: 10 μM; for inhibition at 30 µM: Compound concentration: 30 μM. As to the method:
as §1, §2

The test system of test [2] is B16F10 (malignant melanoma). In words: Antiproliferative activity (CCK-8 cell viability), B16F10. Particulars: Mus musculus, 72 h, read-out: Antiproliferative activity in cancerous cells, B16F10 (inhibition of cell growth); for inhibition at 3.3 µM: B16-F10, Compound concentration: 3.3 μM; for inhibition at 10 µM: B16-F10, Compound concentration: 10 μM. Here is the method:
as §1, §2

In test [3] the test system is A431 (epidermoid carcinoma). In words: Antiproliferative activity (CCK-8 cell viability), A431. Particulars: Homo sapiens, 72 h; for inhibition at 3.3 µM: A-431, Compound concentration: 3.3 μM; for inhibition at 10 µM: A-431, Compound concentration: 10 μM; for inhibition at 30 µM: A-431, Compound concentration: 30 μM. As to the method:
as §1, §2

Test [4] concerns A549 (lung adenocarcinoma). In words: Antiproliferative activity (CCK-8 cell viability), A549. The note with it: Homo sapiens, 72 h; for inhibition at 3.3 µM: Compound concentration: 3.3 μM; for inhibition at 10 µM: Compound concentration: 10 μM; for inhibition at 30 µM: Compound concentration: 30 μM. As to the method:
as §1, §2

The test system of the next test is HeLa (cervical cancer). In words: Antiproliferative activity (CCK-8 cell viability), HeLa. The note with it: Homo sapiens, 72 h, read-out: Antiproliferative activity in cancerous cells, HELA (inhibition of cell growth); for inhibition at 3.3 µM: Compound concentration: 3.3 μM; for inhibition at 10 µM: Compound concentration: 10 μM. Here is the method:
as §1, §2

Setting [5] is: read-out: Antiproliferative activity in cancerous cells, HepG2 (inhibition of cell growth).
Setting [6] is: read-out: Antiproliferative activity in cancerous cells, SW480 (inhibition of cell growth).
Setting [7] is: read-out: Antiproliferative activity in cancerous cells, A431 (inhibition of cell growth).
Setting [8] is: read-out: Antiproliferative activity in cancerous cells, A549 (inhibition of cell growth).

Turning to `CC1=C(CC(=O)O)c2cc(I)ccc2/C1=C/c1ccc(COCc2ccc(F)cc2)cc1` [E18, (E)-2-(1-(4-(((4-Fluorobenzyl)oxy)methyl)benzylidene)-5-iodo-2-methyl-1H-inden-3-yl)acetic acid], the inhibition at 3.3 µM in test [1] was less than 30%; in the test on HepG2 (liver cancer) (setting [5]), less than 30%; in the test with SW480 (colon cancer) (setting [6]), less than 30%; in test [2], 30 to 50%; in test [3] (setting [7]), not below 50%; in test [4] (setting [8]) it was less than 30%. Further, the inhibition at 3.3 µM with HeLa (cervical cancer) was not below 50%. In addition, the inhibition at 10 µM (in test [1]; in the test on HepG2 (liver cancer) (setting [5]); in the test with SW480 (colon cancer) (setting [6]); in test [2]; in test [3] (setting [7]); in test [4] (setting [8])) was not below 50% each time. Moreover, the inhibition at 10 µM in the test with HeLa (cervical cancer) was not below 50%. The inhibition at 30 µM was not below 50% in test [1] (Compound concentration: 30 μM); not below 50% in the test with HepG2 (liver cancer) (setting [5]); not below 50% in the test with SW480 (colon cancer) (setting [6]); not below 50% in test [2] (B16-F10, Compound concentration: 30 μM); not below 50% in test [3] (setting [7]); not below 50% in test [4] (setting [8]). Also, the inhibition at 30 µM in the test on HeLa (cervical cancer) (Compound concentration: 30 μM) is not below 50%.

On to `CC1=C(CC(=O)O)c2cc(F)ccc2/C1=C\c1cccc(Oc2ccc3ccccc3c2)c1` [C99, (Z)-2-(5-Fluoro-2-methyl-1-(3-(naphthalen-2-yloxy)benzylidene)-1H-inden-3-yl)acetic acid], for which the inhibition at 3.3 µM in test [1] was less than 30%; in the test on HepG2 (liver cancer) (setting [5]), less than 30%; with SW480 (colon cancer) (setting [6]), less than 30%; in test [2], not below 50%; in test [3] (setting [7]), less than 30%; in test [4] (setting [8]) it was less than 30%. Besides, the inhibition at 3.3 µM with HeLa (cervical cancer) was less than 30%. The inhibition at 10 µM in test [1] was 30 to 50%; in the test on HepG2 (liver cancer) (setting [5]), not below 50%; with SW480 (colon cancer) (setting [6]), less than 30%; in test [2], not below 50%; in test [3] (setting [7]), less than 30%; in test [4] (setting [8]) it was less than 30%. In the test with HeLa (cervical cancer), the inhibition at 10 µM is not below 50%.

Consider `CC1=C(CC(=O)O)c2cc(F)ccc2/C1=C\c1ccc(Oc2ccc(Cl)cc2)cc1F` [C78, (Z)-2-(1-(4-(4-Chlorophenoxy)-2-fluorobenzylidene)-5-fluoro-2-methyl-1H-inden-3-yl)acetic acid], for which the inhibition at 3.3 µM was not below 50% in test [1]; less than 30% with HepG2 (liver cancer) (setting [5]); less than 30% in the test on SW480 (colon cancer) (setting [6]); less than 30% in test [2]; less than 30% in test [3] (setting [7]); not below 50% in test [4] (setting [8]). For the same molecule, the inhibition at 3.3 µM with HeLa (cervical cancer) was less than 30%. In addition, the inhibition at 10 µM is not below 50% in test [1]; not below 50% in the test with HepG2 (liver cancer) (setting [5]); 30 to 50% in the test on SW480 (colon cancer) (setting [6]); not below 50% in test [2]; not below 50% in test [3] (setting [7]); not below 50% in test [4] (setting [8]). Further, the inhibition at 10 µM with HeLa (cervical cancer) was not below 50%.

As to `COc1ccc2c(c1)C(CC(=O)O)=C(C)/C2=C/c1ccc(COc2ccc(F)cc2)cc1` [B54, (Z)-2-(1-(4-((4-Fluorophenoxy)methyl)benzylidene)-5-methoxy-2-methyl-1H-inden-3-yl)acetic acid], the inhibition at 3.3 µM is 30 to 50% in test [1]; less than 30% in the test with HepG2 (liver cancer) (setting [5]); less than 30% in the test on SW480 (colon cancer) (setting [6]); not below 50% in test [2]; 30 to 50% in test [3] (setting [7]); less than 30% in test [4] (setting [8]). Also, in the test with HeLa (cervical cancer), the inhibition at 3.3 µM was not below 50%. For the same molecule, the inhibition at 10 µM is not below 50% in test [1]; less than 30% with HepG2 (liver cancer) (setting [5]); less than 30% in the test with SW480 (colon cancer) (setting [6]); not below 50% in test [2]; 30 to 50% in test [3] (setting [7]); 30 to 50% in test [4] (setting [8]). For the same molecule, the inhibition at 10 µM with HeLa (cervical cancer) is not below 50%. The inhibition at 30 µM was 30 to 50% in the test on HepG2 (liver cancer) (read-out: Antiproliferative activity in cancerous cells, HepG2); less than 30% with SW480 (colon cancer) (read-out: Antiproliferative activity in cancerous cells, SW480); 30 to 50% in test [3] (read-out: Antiproliferative activity in cancerous cells, A431); 30 to 50% in test [4] (read-out: Antiproliferative activity in cancerous cells, A549).

For the molecule `CC1=C(CC(=O)O)c2cc(F)ccc2/C1=C\c1ccc(Oc2ccc(F)cc2)cc1Cl` [C50, (Z)-2-(1-(2-Chloro-4-(4-fluorophenoxy)benzylidene)-5-fluoro-2-methyl-1H-inden-3-yl)acetic acid], the inhibition at 3.3 µM in test [1] was less than 30%; with HepG2 (liver cancer) (setting [5]), less than 30%; with SW480 (colon cancer) (setting [6]), 30 to 50%; in test [2], less than 30%; in test [3] (setting [7]), not below 50%; in test [4] (setting [8]), less than 30%. Besides, the inhibition at 3.3 µM in the test on HeLa (cervical cancer) fell in the range of 30 to 50%. Also, the inhibition at 10 µM (in test [1]; with HepG2 (liver cancer) (setting [5]); with SW480 (colon cancer) (setting [6]); in test [2]; in test [3] (setting [7]); in test [4] (setting [8])) was not below 50% throughout. In the test with HeLa (cervical cancer), the inhibition at 10 µM is not below 50%.

With `O=C(O)CC1=C(Cc2ccc(Oc3ccc(F)cc3)cc2)/C(=C/c2ccc(Cc3ccc(F)cc3)cc2)c2ccc(F)cc21` [A112, (Z)-2-(5-Fluoro-1-(4-(4-fluorobenzyl)benzylidene)-2-(4-(4-fluorophenoxy)-benzyl)-1H-inden-3-yl)acetic acid], the inhibition at 3.3 µM was not below 50% in test [1]; 30 to 50% in the test with HepG2 (liver cancer) (setting [5]); not below 50% in the test with SW480 (colon cancer) (setting [6]); 30 to 50% in test [2]; not below 50% in test [3] (setting [7]); not below 50% in test [4] (setting [8]). Moreover, the inhibition at 3.3 µM in the test on HeLa (cervical cancer) is not below 50%. The inhibition at 10 µM (in test [1]; with HepG2 (liver cancer) (setting [5]); with SW480 (colon cancer) (setting [6]); in test [2]; in test [3] (setting [7]); in test [4] (setting [8])) was not below 50% in each case. Besides, the inhibition at 10 µM with HeLa (cervical cancer) is not below 50%.

These data come from patent US20260184663A1, “INDENE COMPOUNDS, PHARMACEUTICAL COMPOSITIONS THEREOF, AND THEIR THERAPEUTIC APPLICATIONS” (NucMito Pharmaceuticals co. Ltd., priority 2022, published 2026).
